{"source": "paper PMC13381803", "about": "“Phage-encoded factor stimulates DNA degradation by the Hna anti-phage defense system” (Nature Communications, 2026)", "type_in_all_cases": "biochemical", "key": {"Hna [1]": {"target": "T1, Hna (Sinorhizobium meliloti, UniProt Q92XN4)", "T1 construct": "gene SMa2245; full length, 845 residues; recombinant E. coli (codon-optimised); N-terminal 6xHis-MBP-TEV tags cleaved with TEV; monomer, ATP-stabilised homodimer", "T1 sequence (Q92XN4 entry or part of it)": "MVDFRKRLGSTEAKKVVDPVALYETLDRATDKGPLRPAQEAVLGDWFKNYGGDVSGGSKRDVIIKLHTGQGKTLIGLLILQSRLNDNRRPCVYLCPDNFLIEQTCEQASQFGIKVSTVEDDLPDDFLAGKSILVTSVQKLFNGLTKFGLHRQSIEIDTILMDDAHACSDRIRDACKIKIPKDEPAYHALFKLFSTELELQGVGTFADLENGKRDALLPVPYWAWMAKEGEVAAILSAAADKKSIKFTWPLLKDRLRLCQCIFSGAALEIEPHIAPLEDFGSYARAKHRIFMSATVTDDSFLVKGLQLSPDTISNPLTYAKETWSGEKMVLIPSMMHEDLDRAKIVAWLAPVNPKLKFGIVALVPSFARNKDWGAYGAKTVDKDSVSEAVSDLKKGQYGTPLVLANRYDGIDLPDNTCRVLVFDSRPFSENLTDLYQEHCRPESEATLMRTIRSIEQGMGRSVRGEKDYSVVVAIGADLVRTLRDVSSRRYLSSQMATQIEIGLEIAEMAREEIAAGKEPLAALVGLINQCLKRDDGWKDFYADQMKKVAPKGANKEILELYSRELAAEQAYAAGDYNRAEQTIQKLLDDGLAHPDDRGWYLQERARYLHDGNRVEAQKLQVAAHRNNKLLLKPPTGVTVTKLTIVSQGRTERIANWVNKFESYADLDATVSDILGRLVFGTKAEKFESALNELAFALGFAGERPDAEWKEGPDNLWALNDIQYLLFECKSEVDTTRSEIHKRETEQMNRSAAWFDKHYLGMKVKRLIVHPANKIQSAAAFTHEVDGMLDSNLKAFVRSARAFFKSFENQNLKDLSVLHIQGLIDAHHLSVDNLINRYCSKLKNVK", "assay": "malachite green phosphate release assay", "settings": "20 µM ATP; 10 nM ssDNA; 10 mM MgCl2; pH 7.5; 37 °C"}, "Hna [2]": {"target": "T1, Hna", "assay": "ssDNA cleavage time courses by capillary electrophoresis, […] ATP", "settings": "10 mM MgCl2; pH 7.5; 37 °C; nuclease read-out, ATP binds helicase domain"}, "Hna [3]": {"target": "T2, Hna (Sinorhizobium meliloti, UniProt Q92XN4, P712A/D713A/E727A)", "T2 construct": "gene SMa2245; full length, 845 residues; recombinant E. coli (codon-optimised); N-terminal 6xHis-MBP-TEV tags cleaved with TEV; monomer, ATP-stabilised homodimer", "T2 sequence (Q92XN4 entry or part of it P712A/D713A/E727A)": "as the sequence (Q92XN4 entry or part of it) above, with P712A, D713A, E727A counted along it", "assay": "malachite green phosphate release assay", "settings": "ssDNA present; Mg2+; pH 7.5; 37 °C"}}}
{"compound": "Nc1ncnc2c1ncn2[C@@H]1O[C@H](COP(=O)(O)OP(=O)(O)OP(=O)(O)O)[C@@H](O)[C@H]1O", "note": "[ATP]", "values": [{"measurement": "malachite green phosphate release assay", "setting": "Hna [1]", "result": "Hna possesses minimal innate ATPase activity that is significantly enhanced by the inclusion of ssDNA"}, {"measurement": "inhibition of ssDNA cleavage", "setting": "Hna [2]", "result": "significant reduction in ssDNA cleavage across all concentrations of ATP tested"}, {"measurement": "ATPase activity (significant increase)", "setting": "Hna [3]", "result": "significant increase in ATP hydrolysis by PDE Hna"}]}
